Measured values as given in ChEMBL document CHEMBL1201862, “PubChem BioAssay data set” (2004).
Activity calls are given as the source filed them.

Experiments:
[1] = target: T1, Delta-type opioid receptor (Homo sapiens, UniProt P41143); experiment: HTS Image-Based Screen for Antagonists of the DOR Receptor. [Related pubchem assays (depositor defined):AID1777, AID1785, AID1786, AID2133]; assay type: functional
Mu-type opioid receptor = Mu-type opioid receptor (Homo sapiens, UniProt P35372); experiment: HTS Image-Based Screen for Agonists of the MOR Receptor. [Related pubchem assays (depositor defined):AID1777, AID1785, AID1786, AID2133]; assay type: functional;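 also: imaging of beta-arrestin GFP recruitment into spots after receptor activation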
[2] = target: E3 ubiquitin-protein ligase Mdm2 (Homo sapiens, UniProt Q00987); experiment: enhancers of MDM2-luciferase reporter signal, concentration-effect titration, project on inhibitors of MDM2 ubiquitin ligase, cellular assay, luminescent readout, 384-well plate format (AID 1394); assay type: functional;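 also: MDM2 E3 inhibitors raise luminescence so EC50 is for signal enhancement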
[3] = test system: Streptococcus sp. 'group A'; experiment: growth inhibition of control SK(-) GAS strain, dose response, counter-screen for streptokinase expression inhibitor project, luminescence, kanamycin, BacTiterGlo, confirmation (AID 1900); assay type: functional, organism-based
[4] = target: T1, Delta-type opioid receptor; experiment: HTS Image-Based Screen for Agonists of the DOR Receptor. [Related pubchem assays (depositor defined):AID1777, AID1786, AID2133]; assay type: functional
Beta-galactosidase [5] = target: T2, Beta-galactosidase (Escherichia coli, UniProt Q8VNN2); experiment: PubChem AID 485352; assay type: functional
[6] = inhibitors of intracellular T. cruzi replication, confirmation, NIH3T3 host cells, beta-gal luminescence (AID 2044); assay type: functional, cell-based;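 also: intracellular parasites grown in NIH/3T3 mouse fibroblasts as host cells; luminescent beta-galactosidase reporter signal from transgenic T. cruzi replicating inside host cells; inhibitors lower the luminescence signal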
[7] = target: T3, Type-1 angiotensin II receptor (Homo sapiens, UniProt P30556); experiment: AT1 receptor antagonists, dose response, selectivity assay for APJ receptor antagonist project, cell-based, uHTS hits (AID 463214); assay type: functional;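 also: antagonist potency against angiotensin II stimulated AT1 response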
T3 sequence (P30556 whole entry): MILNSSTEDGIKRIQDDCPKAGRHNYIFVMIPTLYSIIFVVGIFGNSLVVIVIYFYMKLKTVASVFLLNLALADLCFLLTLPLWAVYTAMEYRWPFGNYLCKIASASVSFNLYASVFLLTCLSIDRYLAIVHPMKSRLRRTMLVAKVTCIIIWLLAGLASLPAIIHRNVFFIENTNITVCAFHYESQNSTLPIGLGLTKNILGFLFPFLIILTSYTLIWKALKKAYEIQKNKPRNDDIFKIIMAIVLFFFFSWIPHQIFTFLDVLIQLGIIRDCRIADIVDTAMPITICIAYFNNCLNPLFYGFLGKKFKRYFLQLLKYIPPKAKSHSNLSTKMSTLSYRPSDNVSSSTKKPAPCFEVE

[8] = target: T4, Kappa-type opioid receptor (Homo sapiens, UniProt P41145); assay type: functional
[9] = cytotoxicity toward NIH3T3 fibroblasts, dose response, counter-screen, cell-based, ATP luminescence, mouse fibroblasts (AID 2010); assay type: functional;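 also: cells exposed to compound for about 90 hours before reading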
Beta-galactosidase [10] = target: T2, Beta-galactosidase; assay type: functional
[11] = target: T4, Kappa-type opioid receptor; assay type: functional; remark: listed apart in the source
Streptococcus = experiment: Group A Streptococcus viability loss, dose response, counter-screen for streptokinase expression inhibitor project, luminescence, BacTiterGlo (AID 1915); assay type: functional, organism-based;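 also: potency for reduction of bacterial viability or growth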
[12] = target: T5, Ubiquitin-conjugating enzyme E2 N (Homo sapiens, UniProt P61088); assay type: functional;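 also: Dose-response confirmation in a TR-FRET assay detecting UBC13-driven polyubiquitin chain formation, inhibition measured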
T5 sequence (P61088 whole entry): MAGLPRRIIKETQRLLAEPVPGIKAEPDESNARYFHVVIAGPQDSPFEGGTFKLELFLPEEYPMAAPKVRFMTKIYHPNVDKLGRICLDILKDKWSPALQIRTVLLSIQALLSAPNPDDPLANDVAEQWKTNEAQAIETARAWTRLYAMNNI

Nonstructural protein 1 = Nonstructural protein 1 (Influenza A virus, UniProt Q194T2); assay type: functional, Influenza A virus (A/California/07/2009(H1N1))
[13] = target: T6, Heat shock factor protein 1 (Mus musculus, UniProt P38532); experiment: HSF1 potentiators in luciferase reporter cells, confirmation, cell-based, NIH3T3, luminescence, dose retest (AID 435004); assay type: functional;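 also: stress induced by proteasome inhibitor MG132 added 30 min after compound; luciferase reporter driven by HSF1 response element in NIH3T3 cells; actives raise luminescence as potentiators of the MG132 stress response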
T6 sequence (P38532 whole entry): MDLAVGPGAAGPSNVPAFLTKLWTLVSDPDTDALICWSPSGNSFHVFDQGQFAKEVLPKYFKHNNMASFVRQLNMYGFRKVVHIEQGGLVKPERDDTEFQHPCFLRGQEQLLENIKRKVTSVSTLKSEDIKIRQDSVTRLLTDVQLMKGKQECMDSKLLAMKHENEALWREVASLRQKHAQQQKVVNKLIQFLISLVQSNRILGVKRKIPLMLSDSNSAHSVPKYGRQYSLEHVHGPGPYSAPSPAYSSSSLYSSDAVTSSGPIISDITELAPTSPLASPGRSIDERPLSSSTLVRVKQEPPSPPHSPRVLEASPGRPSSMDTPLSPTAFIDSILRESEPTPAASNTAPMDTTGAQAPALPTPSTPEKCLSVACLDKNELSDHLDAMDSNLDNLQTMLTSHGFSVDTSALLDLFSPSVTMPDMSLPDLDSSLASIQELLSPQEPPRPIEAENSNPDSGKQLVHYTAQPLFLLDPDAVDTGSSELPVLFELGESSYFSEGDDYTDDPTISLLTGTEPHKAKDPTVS

[14] = AlphaScreen signal interference compounds, dose response, artefact control for ARNT-TACC3 interaction inhibitor project, biochemical, luminescence, cherry-pick (AID 651705); assay type: functional;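 also: AlphaScreen bead proximity signal that flags compounds interfering with the detection technology; potency reflects signal decrease which marks the compound as an assay artifact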
[15] = Luminescence Cell-Based Dose Confirmation HTS to Identify Inhibitors of Polyadenylation.; assay type: functional
Exodeoxyribonuclease V = Exodeoxyribonuclease V (Escherichia coli (strain K12), UniProt P04993+P07648+P08394); experiment: E. coli RecBCD inhibitors, dose response, counter-screen for AddAB inhibitor project, absorbance, V66 E. coli, mutant T4 phage (AID 492957); assay type: functional, cell-based, Escherichia coli str. K-12 substr. MG1655
[16] = target: Intestinal-type alkaline phosphatase (Mus musculus, UniProt P24822); experiment: PubChem AID 488785; assay type: functional
[17] = target: FAD-linked sulfhydryl oxidase ALR (Homo sapiens, UniProt P55789); experiment: inhibitors of human ALR sulfhydryl oxidase, dose response, biochemical, H2O2 detection, luminescence, cherry-pick (AID 493248)
[18] = target: T7, Alkaline phosphatase, tissue-nonspecific isozyme (Homo sapiens, UniProt P05186); experiment: TNAP enzyme inhibition by screening hits, dose response, selectivity assay for mouse IAP inhibitor project, biochemical, human TNAP, uHTS hits (AID 488906); assay type: functional
T7 sequence (P05186 whole entry): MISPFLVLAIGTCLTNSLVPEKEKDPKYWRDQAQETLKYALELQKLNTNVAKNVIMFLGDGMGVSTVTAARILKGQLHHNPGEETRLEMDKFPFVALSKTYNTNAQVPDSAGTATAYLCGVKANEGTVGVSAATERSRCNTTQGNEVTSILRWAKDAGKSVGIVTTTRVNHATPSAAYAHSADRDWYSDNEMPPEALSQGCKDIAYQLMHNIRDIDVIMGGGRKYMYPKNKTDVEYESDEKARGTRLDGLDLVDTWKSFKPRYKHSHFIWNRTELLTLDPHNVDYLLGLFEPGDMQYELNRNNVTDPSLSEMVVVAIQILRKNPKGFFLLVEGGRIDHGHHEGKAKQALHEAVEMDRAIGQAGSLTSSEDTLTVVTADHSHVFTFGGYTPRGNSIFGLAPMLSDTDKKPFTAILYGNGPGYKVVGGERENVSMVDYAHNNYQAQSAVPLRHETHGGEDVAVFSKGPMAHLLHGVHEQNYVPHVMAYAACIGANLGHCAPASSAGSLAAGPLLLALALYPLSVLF

[19] = Counterscreen for AddAB inhibitors: absorbance-based bacterial cell-based high throughput dose response assay for inhibitors of bacterial viability. [Related pubchem assays (depositor defined):AID435030, AID449728, AID449731, AID488942, AID488955, AID488956]; assay type: functional
[20] = target: Intestinal-type alkaline phosphatase (Homo sapiens, UniProt P09923); experiment: inhibition of human intestinal alkaline phosphatase – biochemical, dose response (AID 488876); assay type: functional
[21] = target: T8, Apoptotic protease-activating factor 1 (Homo sapiens, UniProt O14727); assay type: functional
T8 sequence (O14727 whole entry): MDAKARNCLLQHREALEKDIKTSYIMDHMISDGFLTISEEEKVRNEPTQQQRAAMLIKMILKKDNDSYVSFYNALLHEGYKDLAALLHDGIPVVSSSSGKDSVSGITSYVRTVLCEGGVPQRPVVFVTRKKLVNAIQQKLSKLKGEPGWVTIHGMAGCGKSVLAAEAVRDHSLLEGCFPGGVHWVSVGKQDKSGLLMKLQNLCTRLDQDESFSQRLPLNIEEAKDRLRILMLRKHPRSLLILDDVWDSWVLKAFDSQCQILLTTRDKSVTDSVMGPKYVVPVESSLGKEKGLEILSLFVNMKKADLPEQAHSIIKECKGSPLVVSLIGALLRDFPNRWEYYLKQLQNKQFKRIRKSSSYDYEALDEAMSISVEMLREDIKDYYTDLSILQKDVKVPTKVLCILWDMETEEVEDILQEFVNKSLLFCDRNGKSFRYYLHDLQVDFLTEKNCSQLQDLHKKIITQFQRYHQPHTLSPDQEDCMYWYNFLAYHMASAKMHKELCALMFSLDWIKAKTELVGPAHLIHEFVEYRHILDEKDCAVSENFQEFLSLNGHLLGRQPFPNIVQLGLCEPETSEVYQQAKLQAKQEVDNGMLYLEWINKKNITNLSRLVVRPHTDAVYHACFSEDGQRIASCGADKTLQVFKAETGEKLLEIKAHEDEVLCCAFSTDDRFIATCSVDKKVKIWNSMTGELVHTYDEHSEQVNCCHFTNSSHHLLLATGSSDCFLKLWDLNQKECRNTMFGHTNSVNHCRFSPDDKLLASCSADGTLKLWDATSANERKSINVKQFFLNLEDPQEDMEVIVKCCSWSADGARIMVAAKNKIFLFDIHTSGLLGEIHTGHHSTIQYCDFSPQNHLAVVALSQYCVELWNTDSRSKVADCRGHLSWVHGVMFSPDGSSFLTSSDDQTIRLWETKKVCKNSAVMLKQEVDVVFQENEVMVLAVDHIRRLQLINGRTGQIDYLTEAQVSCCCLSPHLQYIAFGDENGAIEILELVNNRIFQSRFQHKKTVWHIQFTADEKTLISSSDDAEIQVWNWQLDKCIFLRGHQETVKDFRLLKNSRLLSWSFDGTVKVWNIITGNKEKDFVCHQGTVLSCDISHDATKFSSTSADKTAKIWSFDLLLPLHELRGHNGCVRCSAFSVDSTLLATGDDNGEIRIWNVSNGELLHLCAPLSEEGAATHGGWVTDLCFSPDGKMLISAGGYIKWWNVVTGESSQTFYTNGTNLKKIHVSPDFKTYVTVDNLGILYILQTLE

[22] = HeLa 2N DNA content increase, dose response, cell-based, IC50 (AID 1117349); assay type: functional
[23] = Concentration-dependent survival of SW480 colon cancer line, luminescence detection with CellTiter-Glo, half-maximal inhibitory concentration (AID 1117338); assay type: functional
[24] = RKO cell viability reduction, dose response, CellTiter-Glo luminescence (AID 1117322); assay type: functional
[25] = cytotoxicity toward HCT116 cells – cell-based, CellTiter-Glo luminescence, IC50, dose response (AID 1117332); assay type: functional; conditions: HCT-116
[26] = SNU-C1 cell viability reduction, dose response, CellTiter-Glo luminescence (AID 1117323); assay type: functional, cell-based
[27] = cytotoxicity toward Colo320 cells – cell-based, CellTiter-Glo luminescence, IC50, dose response (AID 1117334); assay type: functional; conditions: COLO 320
[28] = HeLa 4N DNA content increase, dose response, cell-based, IC50 (AID 1117351); assay type: functional
[29] = cytotoxicity toward HT-29 cells – cell-based, CellTiter-Glo luminescence, IC50, dose response (AID 1117330); assay type: functional
[30] = CellTiter-Glo luminescent dose response of DLD-1 viability loss (AID 1117352); assay type: functional
[31] = HCT116 cell viability decrease, GSK3B pretreatment – CellTiter-Glo, IC50, dose response (AID 1117339); assay type: functional; conditions: HCT-116

T1 sequence (P41143 whole entry): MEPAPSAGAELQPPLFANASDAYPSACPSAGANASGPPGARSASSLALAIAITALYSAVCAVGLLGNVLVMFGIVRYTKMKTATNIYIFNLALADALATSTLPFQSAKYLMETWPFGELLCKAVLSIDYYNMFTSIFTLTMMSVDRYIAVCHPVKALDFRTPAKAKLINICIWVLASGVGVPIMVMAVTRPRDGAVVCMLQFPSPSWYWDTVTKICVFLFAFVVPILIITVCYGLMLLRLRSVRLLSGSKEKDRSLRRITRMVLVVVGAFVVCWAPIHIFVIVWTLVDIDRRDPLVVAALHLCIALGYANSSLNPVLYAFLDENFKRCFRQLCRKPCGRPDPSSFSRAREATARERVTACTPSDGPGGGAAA
T4 sequence (P41145 whole entry): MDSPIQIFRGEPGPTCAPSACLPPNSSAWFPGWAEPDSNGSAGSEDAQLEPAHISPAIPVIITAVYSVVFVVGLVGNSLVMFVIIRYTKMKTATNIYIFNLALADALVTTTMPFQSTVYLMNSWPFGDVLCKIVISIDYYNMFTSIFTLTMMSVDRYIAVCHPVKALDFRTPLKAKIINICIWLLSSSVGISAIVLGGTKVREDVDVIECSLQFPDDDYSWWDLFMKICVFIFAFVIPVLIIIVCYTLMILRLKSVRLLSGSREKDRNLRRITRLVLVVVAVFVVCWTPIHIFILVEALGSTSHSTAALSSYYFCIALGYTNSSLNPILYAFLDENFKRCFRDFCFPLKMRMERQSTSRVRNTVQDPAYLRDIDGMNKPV
T2 sequence (Q8VNN2 whole entry): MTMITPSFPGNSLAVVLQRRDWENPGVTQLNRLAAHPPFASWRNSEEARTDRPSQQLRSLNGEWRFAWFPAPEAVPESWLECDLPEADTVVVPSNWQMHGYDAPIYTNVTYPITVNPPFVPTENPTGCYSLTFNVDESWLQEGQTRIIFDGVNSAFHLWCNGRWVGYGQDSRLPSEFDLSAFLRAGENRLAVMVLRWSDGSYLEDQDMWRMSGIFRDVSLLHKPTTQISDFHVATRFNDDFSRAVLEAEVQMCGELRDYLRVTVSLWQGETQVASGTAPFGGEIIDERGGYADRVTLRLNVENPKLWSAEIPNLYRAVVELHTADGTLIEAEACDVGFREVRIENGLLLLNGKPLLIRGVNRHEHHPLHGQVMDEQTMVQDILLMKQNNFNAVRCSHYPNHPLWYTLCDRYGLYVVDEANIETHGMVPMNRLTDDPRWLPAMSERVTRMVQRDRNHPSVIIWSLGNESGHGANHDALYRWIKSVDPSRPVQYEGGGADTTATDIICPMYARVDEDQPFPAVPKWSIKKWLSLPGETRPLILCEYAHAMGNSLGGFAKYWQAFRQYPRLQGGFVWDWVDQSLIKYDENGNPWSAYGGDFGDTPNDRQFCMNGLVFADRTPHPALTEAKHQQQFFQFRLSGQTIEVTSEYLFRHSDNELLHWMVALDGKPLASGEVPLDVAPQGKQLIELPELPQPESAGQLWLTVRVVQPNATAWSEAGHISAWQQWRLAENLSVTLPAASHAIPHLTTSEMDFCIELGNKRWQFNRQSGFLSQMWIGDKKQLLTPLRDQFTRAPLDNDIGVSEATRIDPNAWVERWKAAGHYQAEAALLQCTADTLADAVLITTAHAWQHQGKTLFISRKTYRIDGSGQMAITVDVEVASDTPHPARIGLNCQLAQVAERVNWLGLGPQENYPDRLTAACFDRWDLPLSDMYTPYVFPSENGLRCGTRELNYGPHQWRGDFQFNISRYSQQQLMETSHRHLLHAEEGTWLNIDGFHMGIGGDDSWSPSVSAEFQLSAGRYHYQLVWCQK
Chain of Nonstructural protein 1 (Q194T2 whole entry): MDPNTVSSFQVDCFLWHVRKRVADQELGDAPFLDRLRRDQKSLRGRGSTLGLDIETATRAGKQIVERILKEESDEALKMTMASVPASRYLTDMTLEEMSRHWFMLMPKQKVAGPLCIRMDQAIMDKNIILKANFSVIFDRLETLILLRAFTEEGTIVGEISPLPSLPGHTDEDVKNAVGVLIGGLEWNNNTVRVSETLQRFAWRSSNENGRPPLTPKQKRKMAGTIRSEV
Chain of FAD-linked sulfhydryl oxidase ALR (P55789 whole entry): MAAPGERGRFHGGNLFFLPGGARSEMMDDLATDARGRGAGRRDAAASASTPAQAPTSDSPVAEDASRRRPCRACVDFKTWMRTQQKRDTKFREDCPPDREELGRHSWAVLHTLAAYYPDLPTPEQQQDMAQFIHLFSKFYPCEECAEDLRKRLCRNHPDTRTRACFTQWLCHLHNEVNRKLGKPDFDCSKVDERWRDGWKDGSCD
Chain of Intestinal-type alkaline phosphatase (Mus musculus, UniProt P24822) (P24822 whole entry): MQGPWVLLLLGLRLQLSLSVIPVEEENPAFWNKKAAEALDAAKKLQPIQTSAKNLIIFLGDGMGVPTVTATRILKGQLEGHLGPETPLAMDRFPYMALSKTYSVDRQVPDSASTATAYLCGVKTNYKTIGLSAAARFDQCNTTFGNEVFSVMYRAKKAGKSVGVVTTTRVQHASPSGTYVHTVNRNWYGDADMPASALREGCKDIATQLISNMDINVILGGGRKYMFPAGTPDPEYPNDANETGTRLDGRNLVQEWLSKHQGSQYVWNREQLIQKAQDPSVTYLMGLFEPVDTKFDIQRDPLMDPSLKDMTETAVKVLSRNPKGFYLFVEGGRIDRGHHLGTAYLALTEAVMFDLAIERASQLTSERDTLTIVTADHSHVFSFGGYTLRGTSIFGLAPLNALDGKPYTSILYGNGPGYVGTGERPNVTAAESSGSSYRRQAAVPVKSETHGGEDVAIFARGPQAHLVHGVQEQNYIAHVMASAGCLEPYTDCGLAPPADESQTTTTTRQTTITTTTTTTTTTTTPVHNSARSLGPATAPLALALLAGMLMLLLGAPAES
Chain of Intestinal-type alkaline phosphatase (Homo sapiens, UniProt P09923) (P09923 whole entry): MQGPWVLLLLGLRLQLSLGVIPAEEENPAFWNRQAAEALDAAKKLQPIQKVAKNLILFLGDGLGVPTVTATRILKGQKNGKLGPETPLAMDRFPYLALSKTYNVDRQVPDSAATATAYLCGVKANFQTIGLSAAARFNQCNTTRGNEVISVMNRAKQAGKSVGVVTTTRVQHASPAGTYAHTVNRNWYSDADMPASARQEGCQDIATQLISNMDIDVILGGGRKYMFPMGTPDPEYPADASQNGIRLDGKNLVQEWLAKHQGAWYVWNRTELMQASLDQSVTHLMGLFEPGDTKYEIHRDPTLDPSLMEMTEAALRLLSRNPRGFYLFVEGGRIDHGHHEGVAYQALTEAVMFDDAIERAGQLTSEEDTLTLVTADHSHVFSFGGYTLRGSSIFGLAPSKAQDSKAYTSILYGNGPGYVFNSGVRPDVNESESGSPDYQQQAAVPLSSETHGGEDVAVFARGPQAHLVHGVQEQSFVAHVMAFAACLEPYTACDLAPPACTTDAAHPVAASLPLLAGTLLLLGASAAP
Chain of E3 ubiquitin-protein ligase Mdm2 (Q00987 whole entry): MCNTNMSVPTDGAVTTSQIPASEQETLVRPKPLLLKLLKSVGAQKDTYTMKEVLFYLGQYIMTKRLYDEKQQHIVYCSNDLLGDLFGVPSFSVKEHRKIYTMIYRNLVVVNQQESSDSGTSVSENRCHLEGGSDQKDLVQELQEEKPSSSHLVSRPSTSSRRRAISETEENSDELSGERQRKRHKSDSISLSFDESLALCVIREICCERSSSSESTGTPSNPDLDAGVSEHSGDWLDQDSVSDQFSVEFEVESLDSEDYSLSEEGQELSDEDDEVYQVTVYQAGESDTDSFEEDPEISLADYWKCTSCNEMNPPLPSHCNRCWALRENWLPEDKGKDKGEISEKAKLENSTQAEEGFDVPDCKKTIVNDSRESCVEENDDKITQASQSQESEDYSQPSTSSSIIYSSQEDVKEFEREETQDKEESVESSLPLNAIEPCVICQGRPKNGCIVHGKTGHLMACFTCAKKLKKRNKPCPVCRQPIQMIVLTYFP
Chain of Mu-type opioid receptor (P35372 whole entry): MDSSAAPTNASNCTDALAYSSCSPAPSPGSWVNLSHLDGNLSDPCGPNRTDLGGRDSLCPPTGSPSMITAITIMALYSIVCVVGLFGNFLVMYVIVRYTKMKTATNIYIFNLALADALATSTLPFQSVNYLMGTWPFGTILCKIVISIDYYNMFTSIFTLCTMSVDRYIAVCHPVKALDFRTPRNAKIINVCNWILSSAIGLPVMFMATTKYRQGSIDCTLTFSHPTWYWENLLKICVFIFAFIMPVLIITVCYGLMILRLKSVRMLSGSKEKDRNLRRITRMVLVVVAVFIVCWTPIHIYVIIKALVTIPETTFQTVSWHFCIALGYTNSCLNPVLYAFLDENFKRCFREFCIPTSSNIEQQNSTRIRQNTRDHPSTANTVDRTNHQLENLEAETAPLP

COCc1cc(O)nc(Nc2nc3ccc(C)cc3o2)n1
IC50 [1]: > 32 µM (inactive) | EC50 (Mu-type opioid receptor): > 32 µM (inactive) | EC50 [2]: 0.56 µM (active) | EC50 [3]: 2.11 µM (active) | EC50 [4]: > 32 µM (inactive) | EC50 (Beta-galactosidase [5]): > 40 µM (inactive) | EC50 [6]: 1.87 µM (active) | IC50 [7]: 6.83 µM (active) | IC50 [8]: 7.12 µM (active) | EC50 [9]: 4.89 µM (active) | EC50 (Beta-galactosidase [10]): > 31.5 µM (inactive) | IC50 [11]: > 32 µM | EC50 (Streptococcus): 7.89 µM (active) | IC50 [12]: > 20 µM (inactive) | IC50 (Nonstructural protein 1): 16.1 µM (active) | EC50 [13]: 11.1 µM (active) | AC50 [14]: 103 µM (active)

CCN1/C(=C/C=C/c2sc3ccccc3[n+]2CC)Sc2ccccc21
EC50 [3]: 2.54 µM (active) | EC50 [15]: 11.1 µM (active) | EC50 (Streptococcus): 3 µM (active) | IC50 (Exodeoxyribonuclease V): 80.9 µM (inactive) | IC50 [16]: 1.55 µM (active) | IC50 (Nonstructural protein 1): 9.73 µM (active) | AC50 [17]: 0.522 µM (active) | IC50 [18]: 74.8 µM (active) | IC50 [19]: 99.5 µM (inactive) | IC50 [20]: > 100 µM (inactive) | IC50 [21]: 20.8 µM (active) | IC50 [22]: 8.51 µM (inactive) | IC50 [23]: 0.172 µM (active) | IC50 [24]: 0.00898 µM (active) | IC50 [25]: 0.00957 µM (active) | IC50 [26]: 0.0172 µM (active) | IC50 [27]: 0.562 µM (active) | IC50 [28]: > 10 µM (inactive) | IC50 [29]: 0.00838 µM (active) | IC50 [30]: 0.0148 µM (active) | IC50 [31]: 0.00875 µM (active)
